Patent US20240092835A1, “NOVEL PEPTIDES CAPABLE OF ALTERING NK CELL ACTIVITY” (Massachusetts Institute of Technology, priority 2022, published 2024)
Where no end group is shown, it is not given here.

How the values were obtained:
Type in all cases: cell-based, human
NKG2A−/NKG2C+ NK cells = assay: NK cell activation markers in NKG2A-/NKG2C+ NK cells incubated with peptide and K562 expressing HLA-E (activation); conditions: for effect on NKG2A−/NKG2C+ NK cell activation (in words): K562 expressing HLA-E, CD107a, IFNG, TNF, CCL3; for percentage of CCL3+ NK cells / percentage of CD107+ NK cells / percentage of IFNG+ NK cells / percentage of TNF+ NK cells: NKG2A-/NKG2C+ NK cells, K562/HLA-E
Method in brief: (§1)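 HLA-E-expressing K562 cells incubated with peptides from human or human cytomegalovirus proteomes, then with NK cell subsets sorted by NKG2A/NKG2C status. Read-out is percent of cells positive for surface markers; a rise indicates activation, a fall inhibition.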

NKG2A−/NKG2C− NK cells = assay: NK cell activation markers in control NKG2A-/NKG2C- NK cells incubated with peptide and K562 expressing HLA-E
Method in brief: as §1

NKG2A+/NKG2C− NK cells = assay: NK cell activation markers in NKG2A+/NKG2C- NK cells incubated with peptide and K562 expressing HLA-E (inhibition); conditions: K562 expressing HLA-E, CD107a, IFNG, TNF, CCL3
Method in brief: as §1

Sequence: TGPWRSLWI [human3, TGPWRSLWI]
- effect on NKG2A−/NKG2C+ NK cell activation (in words) (NKG2A−/NKG2C+ NK cells; listed as SEQ ID NO. 2): activate
- effect on NKG2A−/NKG2C+ NK cell activation (in words) (NKG2A−/NKG2C+ NK cells; listed as h3): activated
- percentage of CCL3+ NK cells (NKG2A−/NKG2C+ NK cells; Trial 1): 60.9%
- percentage of CD107+ NK cells (NKG2A−/NKG2C+ NK cells; Trial 1): 50.7%
- percentage of IFNG+ NK cells (NKG2A−/NKG2C+ NK cells; Trial 1): 27.8%
- percentage of TNF+ NK cells (NKG2A−/NKG2C+ NK cells; Trial 1): 19.1%
- percentage of CCL3+ NK cells (NKG2A−/NKG2C+ NK cells; Trial 2): 75.8%
- percentage of CD107+ NK cells (NKG2A−/NKG2C+ NK cells; Trial 2): 63.4%
- percentage of IFNG+ NK cells (NKG2A−/NKG2C+ NK cells; Trial 2): 36.4%
- percentage of TNF+ NK cells (NKG2A−/NKG2C+ NK cells; Trial 2): 24.8%
- percentage of CCL3+ NK cells (NKG2A−/NKG2C+ NK cells; Trial 3): 75.7%
- percentage of CD107+ NK cells (NKG2A−/NKG2C+ NK cells; Trial 3): 73.9%
- percentage of IFNG+ NK cells (NKG2A−/NKG2C+ NK cells; Trial 3): 55.4%
- percentage of TNF+ NK cells (NKG2A−/NKG2C+ NK cells; Trial 3): 47.1%
- percentage of CCL3+ NK cells (NKG2A−/NKG2C+ NK cells; Trial 4): 64.5%
- percentage of CD107+ NK cells (NKG2A−/NKG2C+ NK cells; Trial 4): 62.3%
- percentage of IFNG+ NK cells (NKG2A−/NKG2C+ NK cells; Trial 4): 46.9%
- percentage of TNF+ NK cells (NKG2A−/NKG2C+ NK cells; Trial 4): 37.4%
- percentage of CCL3+ NK cells (NKG2A−/NKG2C+ NK cells; Trial 5): 65.7%
- percentage of CD107+ NK cells (NKG2A−/NKG2C+ NK cells; Trial 5): 61%
- percentage of IFNG+ NK cells (NKG2A−/NKG2C+ NK cells; Trial 5): 43.5%
- percentage of TNF+ NK cells (NKG2A−/NKG2C+ NK cells; Trial 5): 37.7%
- percentage of CCL3+ NK cells (NKG2A−/NKG2C+ NK cells; Trial 6): 46%
- percentage of CD107+ NK cells (NKG2A−/NKG2C+ NK cells; Trial 6): 39.5%
- percentage of IFNG+ NK cells (NKG2A−/NKG2C+ NK cells; Trial 6): 23.3%
- percentage of TNF+ NK cells (NKG2A−/NKG2C+ NK cells; Trial 6): 15.8%
- percentage CCL3+ NK cells (NKG2A−/NKG2C− NK cells; Trial 1): 38.1%
- percentage CD107+ NK cells (NKG2A−/NKG2C− NK cells; Trial 1): 28.9%
- percentage TNF+ NK cells (NKG2A−/NKG2C− NK cells; Trial 1): 4.31%
- percentage of IFNG+ NK cells (NKG2A−/NKG2C− NK cells; Trial 1): 17.2%
- percentage CCL3+ NK cells (NKG2A−/NKG2C− NK cells; Trial 2): 61%
- percentage CD107+ NK cells (NKG2A−/NKG2C− NK cells; Trial 2): 37.9%
- percentage TNF+ NK cells (NKG2A−/NKG2C− NK cells; Trial 2): 8.81%
- percentage of IFNG+ NK cells (NKG2A−/NKG2C− NK cells; Trial 2): 26.9%
- percentage CCL3+ NK cells (NKG2A−/NKG2C− NK cells; Trial 3): 55.4%
- percentage CD107+ NK cells (NKG2A−/NKG2C− NK cells; Trial 3): 50.4%
- percentage TNF+ NK cells (NKG2A−/NKG2C− NK cells; Trial 3): 20.8%
- percentage of IFNG+ NK cells (NKG2A−/NKG2C− NK cells; Trial 3): 44%
- percentage CCL3+ NK cells (NKG2A−/NKG2C− NK cells; Trial 4): 36.6%
- percentage CD107+ NK cells (NKG2A−/NKG2C− NK cells; Trial 4): 32.6%
- percentage TNF+ NK cells (NKG2A−/NKG2C− NK cells; Trial 4): 11.3%
- percentage of IFNG+ NK cells (NKG2A−/NKG2C− NK cells; Trial 4): 21.2%
- percentage CCL3+ NK cells (NKG2A−/NKG2C− NK cells; Trial 5): 31%
- percentage CD107+ NK cells (NKG2A−/NKG2C− NK cells; Trial 5): 26.2%
- percentage TNF+ NK cells (NKG2A−/NKG2C− NK cells; Trial 5): 8.06%
- percentage of IFNG+ NK cells (NKG2A−/NKG2C− NK cells; Trial 5): 19.1%
- percentage CCL3+ NK cells (NKG2A−/NKG2C− NK cells; Trial 6): 26.5%
- percentage CD107+ NK cells (NKG2A−/NKG2C− NK cells; Trial 6): 18.6%
- percentage TNF+ NK cells (NKG2A−/NKG2C− NK cells; Trial 6): 4.18%
- percentage of IFNG+ NK cells (NKG2A−/NKG2C− NK cells; Trial 6): 8.37%
- effect on NKG2A+/NKG2C− NK cell inhibition (in words) (NKG2A+/NKG2C− NK cells; listed as SEQ ID NO. 2): no or minimal effect
- effect on NKG2A+/NKG2C− NK cell inhibition (in words) (NKG2A+/NKG2C− NK cells; listed as h3): no effect
